Data taken from patent US20080063642A1, “Methods of using (+)-1,4-dihydro-7-[(3S,4S)-3-methoxy-4-(methylamino)-1-pyrrolidinyl]-4-oxo-1-(2-thiazolyl)-1,8-naphthyridine-3-carboxylic acid for treatment of certain hematologic disorders” (priority 2006, published 2008).
Values after ≈ are worked out from the molar mass of the structure shown. Like-named read-outs stand apart in the source and are kept apart here. Marks after values point to notes of the source that are not given here.

Tests used:
Jurkat (T cell leukemia) = assay: MTT cell viability assay, Jurkat; assay type: cell-based; details: Homo sapiens, MTT after 72 hours
Description: (§1) The following cell lines were used in this assay: HL-60 (promyelocytic leukemia); Jurkat (T cell leukemia); CCRF-CEM (lymphoblastic leukemia); CEM/C2 (camptothecan resistant derivative of CCRF-CEM).
(§2) Cells were seeded in 96 wells plates at 3000 cells per well and incubated for 16 hours. Compound dilutions were performed in DMSO from 10 mM with 3 fold dilutions. Titrations were diluted 1:100 in media to achieve final compound concentrations. The 96 well plates were aspirated and compound dilutions in media were added ([…]). MTT analysis was carried out after 72 hours of incubation at 37° C. Briefly, […] of MTT solution was added to each well. Cells were incubated at 37° C. for 1-2 hours. Cells were lysed with the addition of […] cell lysis buffer and MTT was solubilized overnight at 37° C. Plates were read on a spectromax machine with an absorbance measurement at […]. IC50's were calculated (data provided in Table 1) using regression analysis within GraphPad Prism.

[1] = test system: peripheral neutrophils, white blood cells, platelets; assay: Combination dosing SNS-595 and Ara-C (Example 5): peripheral cytology; assay type: in vivo, nu/nu mice; details: mouse, in vivo
Description: At various time points described in Table 5, mice were euthanized by CO2 asphyxiation in accordance to Institutional Animal Care and Use Committee (IACUC) guidelines. Blood was collected through cardiac tap and transferred to EDTA tubes. The analysis of murine blood CBC and differential counts for samples in these tubes was conducted (at Quality Clinical Labs, Moutainview). Statistical significance was determined by one-tailed student t-test, using Welch's correction for unequal variances.

[2] = Bone marrow/cytology assay (Example 4): body weight loss; assay type: in vivo, Female CD-1 mice; details: all dose groups, 5-20 mg/kg
Description: (§3) Blood was drawn on days 6, 8, and 12 post initial injection for hematological analysis. Femurs were extracted on day 6 fixed in Streck and H&E stained prior to bone marrow cellularity analysis. […] At 20 mg/kg, cellularity was reduced to 7.5%, while circulating neutrophils were reduced from a pre-dose level of […] to a nadir of 51±24 cells/mL blood on day 8. Absolute neutrophil counts subsequently rebounded and soon returned to normal levels. Total WBCs also reached a nadir on day 8, but returned to normal levels.
FIGS. 5 and 6 show neutrophil and total white blood cell counts from blood samples on day 8 post initial injection. […] Body weight loss was tolerable across all dose groups.

[3] = test system: myeloid cell lineages in bone marrow; assay: Monotherapy and combination with Ara-C (Example 6): bone marrow smears, differential counts; assay type: in vivo, Female CD-1 mice; details: SNS-595 treated animals; Day 6
Description: Combination: […] Blood was analyzed at Quality Control Labs (Mountain View, Calif.) for complete blood count and differential count. Bone marrow smears from femurs on Day 6 and Day 12 were prepared and geimsa stained for differential counts. Femurs were also placed in Streck fixative, processed, sectioned and H&E stained. Femur and bone marrow smears were analyzed at BioPathology Sciences (South San Francisco, Calif.) for total cellularity and differential count.

bone marrow [4] = assay: Bone marrow/cytology assay (Example 4): bone marrow cellularity; assay type: in vivo, Female CD-1 mice
Description: as §3

bone marrow [5] = assay: Monotherapy and combination with Ara-C (Example 6): bone marrow total cellularity; assay type: in vivo, Female CD-1 mice
Description: Blood was analyzed at Quality Control Labs (Mountain View, Calif.) for complete blood count and differential count. Bone marrow smears from femurs on Day 6 and Day 12 were prepared and geimsa stained for differential counts. Femurs were also placed in Streck fixative, processed, sectioned and H&E stained. Femur and bone marrow smears were analyzed at BioPathology Sciences (South San Francisco, Calif.) for total cellularity and differential count. […] The compounds were administered on Day 0 and Day 4.

femoral bone marrow = assay: Combination dosing SNS-595 and Ara-C (Example 5): femoral bone marrow cellularity; assay type: in vivo, nu/nu mice
Text: Femurs were harvested for histological evaluation. The femur was placed in Streck fixative, paraffin embedded, sectioned, transferred to slides, and H&E stained (at BioPathology Sciences). Immunohistochemical slides were processed and analyzed for percent cellularity of intact bone marrow.

[6] = CD-1 mouse model; q4d × 2
[7] = test system: HL-60 (promyelocytic leukemia); assay: MTT cell viability assay, HL-60; assay type: cell-based; details: Homo sapiens, MTT after 72 hours
Description: as §1, §2

[8] = test system: CEM/C2 (camptothecan resistant derivative of CCRF-CEM); assay: MTT cell viability assay, CEM/C2; assay type: cell-based; details: Homo sapiens, MTT after 72 hours
Description: as §1, §2

[9] = test system: CCRF-CEM (lymphoblastic leukemia); assay: MTT cell viability assay, CCRF-CEM; assay type: cell-based; details: Homo sapiens, MTT after 72 hours
Description: as §1, §2

[10] = test system: circulating neutrophils, WBCs, platelets; set-up: species or system Female CD-1 mice; details: mouse, in vivo
Description: as §3

[11] = mouse, in vivo, iv
Description: The effects of dosing were studied on changes in body weight, peripheral cytology, and femoral bone marrow cellularity over time as described below.
Before beginning the study, all animals were allowed to acclimatize for 3 days from shipping related stress and the health of the mice was assessed daily by observation. Purified water (reverse osmosis) and irradiated food (PicoLab Rodent Diet 20, #5053; Dean's Animal Feeds, San Carlos, Calif.) were provided ad libitum, and the animals were kept on a 12 hour light and dark cycle.

[12] = test system: CCRF-CEM acute lymphoblastic leukemia tumor; assay: CCRF-CEM xenograft model; assay type: in vivo; details: CCRF-CEM; 25 mg/kg q7d × 3, IV; 20 or 21 days after start
Description: CCRF-CEM acute lymphoblastic leukemia tumor lobes of 2-3 mm square were transplanted subcutaneously into nude mice. Tumors were allowed to grow to approximately 8-20 mm in diameter. […] Acceptable toxicity was defined as a mean group weight loss of 30% or less and not more than one toxic death among 6 treated animals. Anti-tumor activities of the drugs were assessed 20 or 21 days after the start of administration. FIGS. 1-2 and Table 2 provides data for tumor inhibition rate (IR) and survival ratio in the CCRF-CEM and LM3-Jck xenograft models.

[13] = test system: LM3-Jck human malignant lymphoma tumor; assay: LM3-Jck xenograft model; assay type: in vivo; details: for IR (%) tumor inhibition rate: LM3-JcK, 21 days after start
Description: LM3-Jck human malignant lymphoma tumor lobes (2-3 mm square) were transplanted subcutaneously into nude mice. Tumors were allowed to grow to approximately 7-14 mm in diameter. […] Acceptable toxicity was defined as a mean group weight loss of 30% or less and not more than one toxic death among 6 treated animals. Anti-tumor activities of the drugs were assessed 21 days after the start of administration.

[14] = Group 4: SNS-595 15 mg/kg IV q4d × 2

Structure (SMILES): CN[C@H]1CN(c2ccc3c(=O)c(C(=O)O)cn(-c4nccs4)c3n2)C[C@@H]1OC [SNS-595, (+)-1,4-dihydro-7-[(3S,4S)-3-methoxy-4-(methylamino)-1-pyrrolidinyl]-4-oxo-1-(2-thiazolyl)-1,8-naphthyridine-3-carboxylic acid]
- IC50 (Jurkat (T cell leukemia)): 0.023 µg/mL (≈ 0.0573 µM)
- circulating white blood cells, dose response [1]: dose-dependent reduction
- day by which neutrophils returned to normal levels [1]: ≤ 12 days
- day by which platelets returned to normal levels [1]: ≤ 12 days
- number of neutrophils versus vehicle group [1]: significantly lower than the vehicle group
- recovery of white blood cells [1]: failed to return to normal levels by day 18
- number of platelets versus vehicle group ([1]; 5 mg/kg): not significantly decrease
- number of circulating white blood cells versus vehicle group ([1]; 10 mg/kg): significantly lower than the vehicle group
- number of white blood cells versus vehicle group ([1]; 15 mg/kg): significantly lower than the vehicle group
- body weight loss [2]: tolerable
- immature neutrophils in bone marrow smears [3]: significant increase
- bone marrow cellularity (bone marrow [4]; 20 mg/kg IV Day 0 and Day 4, femurs day 6): 7.5%
- bone marrow at 12 days post initial injection (bone marrow [4]; 20 mg/kg, day 12): bone marrow rebound
- bone marrow cellularity, dose response (bone marrow [4]; 5, 10, 15, 20 mg/kg IV Day 0 and Day 4, two days after second administration): dose-dependent reduction in cellularity
- Total Cellularity (Avg) Exp #2 (bone marrow [5]; SNS-595 10 mg/kg q4d × 2): 54%
- Total Cellularity (Avg) Exp #1 (bone marrow [5]; SNS-595 10 mg/kg q4d × 2, two days after completion of treatment, 10 mg/kg): 56%
- Total Cellularity (Avg) Exp #2 (bone marrow [5]; SNS-595 20 mg/kg q4d × 2): 18%
- total cellularity, femur cross section of representative animal (femoral bone marrow; Day 6, SNS-595 5 mg/kg q4d ×2 IV, Animal #23): 60%
- total cellularity, femur cross section of representative animal (femoral bone marrow; Day 6, SNS-595 10 mg/kg q4d ×2 IV, Animal #44): 50%
- total cellularity, femur cross section of representative animal (femoral bone marrow; Day 6, SNS-595 15 mg/kg q4d ×2 IV, Animal #63): 20%
- total cellularity, femur cross section of representative animal (femoral bone marrow; Day 12, SNS-595 15 mg/kg q4d ×2 IV, Animal #73): 100%
- Average Total Cellularity Day 6 (femoral bone marrow; Group 2: SNS-595 5 mg/kg IV q4d × 2): 70%
- Average Total Cellularity Day 6 (femoral bone marrow; Group 3: SNS-595 10 mg/kg IV q4d × 2): 56%
- Average Total Cellularity Day 6 (femoral bone marrow; [14]): 26%
- Average Total Cellularity Day 12 (femoral bone marrow; [14]): 100%
- reduction in cellularity (femoral bone marrow; SNS-595 10 mg/kg IV single agent): 44%
- bone marrow cellularity, dose response (femoral bone marrow; SNS-595 single agent 5, 10, 15 mg/kg): dose-dependent reduction in bone marrow cellularity
- maximum tolerated dose (MTD) [6]: SNS-595 20 mg/kg q4d × 2*
- IC50 [7]: 0.053 µg/mL (≈ 0.132 µM)
- IC50 [8]: 0.01 µg/mL (≈ 0.0249 µM)
- IC50 [9]: 0.018 µg/mL (≈ 0.0448 µM)
- platelet response [10]: minor platelet response
- day of total WBC nadir ([10]; iv): 8 days
- % of Body Wt Nadir ([11]; 5 mg/kg): 0%
- Day of Body Wt Nadir ([11]; 5 mg/kg): 0 days
- % of Body Wt Nadir ([11]; 10 mg/kg): 0%
- Day of Body Wt Nadir ([11]; 10 mg/kg): 0 days
- % of Body Wt Nadir ([11]; 15 mg/kg): −2.8%
- Day of Body Wt Nadir ([11]; 15 mg/kg): 7 days
- IR (%) tumor inhibition rate [12]: 98.1* %
- IR (%) tumor inhibition rate ([13]; 20 mg/kg q7d × 3, IV): 98.9* %
- IR (%) tumor inhibition rate ([13]; 25 mg/kg q7d × 3, IV): 98.5* %
- antitumor activity ([13]; LM-3 Jck malignant lymphoma, 20 and 25 mg/kg): complete tumor regressions
